# Test results published in patent US11331271B2, “Buccal, sublingual and intranasal delivery of fospropofol” (The Johns Hopkins University, priority 2016, dated 2022).
# Read-outs that look alike come from different tables or passages of the source.
# Tests used:
# [1] = Buccal delivery of fospropofol in monkeys: plasma and CSF levels; format: in vivo, monkey
# Description: In this example, monkeys were dosed with 50 mg fospropofol by buccal administration. Plasma and CSF were collected before treatment (graphed as t=0), 15 minutes, 30 minutes, 1 hr and 2 hr. Samples were analyzed for propofol and fospropofol by LCMS.
# [2] = Human Study 1: absolute bioavailability, plasma pharmacokinetics of fospropofol and propofol; format: in vivo; conditions: for Tmax / bioavailability / half-life: male, human, plasma; for half-life: read-out: mean t1/2 of fospropofol (converted)
# Description: In human study 1, fospropofol disodium was formulated as a sterile aqueous solution at a concentration of 20 mg/mL. Each vial provided contained 20 mL of solution, suitable for intravenous injection. Fospropofol was administered as a single dose of 400 mg orally, directly into the duodenum by gastroscopy or intravenously over 10 min. In human study 2, fospropofol disodium in capsules (200 mg) or matching placebo was administered orally.
# The first study was an absolute bioavailability study of fospropofol conducted at a single center (PRA Health Sciences) in Groningen, Netherlands, as a three-way crossover study. The study enrolled 7 healthy male volunteers between 18 and 45 years of age inclusive, with a body mass index between 18 and 28 kg/m^2. Subjects stayed in the clinical unit for three consecutive periods of 3 days each, with a 3-day washout, between periods. For six subjects, the order of the administration routes was as follows—period 1: PO, period 2: ID, and period 3: IV. For one subject the order of the administration routes was the following—period 1: ID, period 2: IV and period 3: PO. In this study a single dose of 400 mg was administered by each route. Blinding and placebo control was impractical due to the requirement of unsedated endoscopic administration of fospropofol into the duodenum. Safety and overall pharmacodynamic effect was evaluated based on adverse events, vital signs, electrocardiogram (ECG), Modified Observer's Assessment of Alertness/Sedation (OAA/S) score, clinical laboratory tests, and physical examination.
# In the first study, 6 mL blood samples were collected following the PO and ID fospropofol treatment periods at times of pre-dose, 5, 10, 20, 30, 45, 60, 90 min and 2, 4, 6 and 9 h post-dose and in the IV fospropofol treatment period at pre-dose and at 5, 10, 15, 20, 30, 45, 60 and 120 min post-dose. In the second study a 6 mL blood sample was collected following each fospropofol PO dose (200, 600, 1,000 and 1,200 mg) at pre-dose, 5, 10, 20, 30, 45, 60, 90 min and 2, 4, 6 and 9 h post-dose. The blood was collected in a sodium heparin vacutainer tube containing 60 mg SOV, inverted approximately eight times to dissolve SOV and placed on dry ice until it was centrifuged at 3,000 rpm for 10 min at 4° C. to harvest plasma. Plasma samples were then stored at −20° C. until analysis.
# The parameters were summarized using descriptive statistics.
# [3] = IV lipid emulsion, animals; cited from earlier work
compound,measurement,setting,value
CC(C)c1cccc(C(C)C)c1OCOP(=O)(O)O [fospropofol],time of fospropofol peak in plasma,[1]; 50 mg buccal,30 to 60 min
same,fospropofol plasma level by 2 hr,"[1]; 50 mg buccal, 2 hr",below the limit of quantification
same,concentration at 15 min,"[1]; monkey, CSF, other: buccal, 50 mg buccal, 15 minutes, read-out: CSF fospropofol, one high point",~850 nM
same,Cmax,"[1]; monkey, plasma, 50 mg buccal",~150 nM
same,"fospropofol Cmax, fold lower than IV",[2]; 400 mg ID vs IV,~534 fold
same,plasma fospropofol by non-intravenous routes,[2]; 400 mg PO or ID,Almost no plasma fospropofol was detected
same,"fospropofol Cmax, fold lower than IV",[2]; 400 mg PO vs IV,approximately 88 fold
same,Tmax,"[2]; other: intraduodenal, 400 mg ID, read-out: Tmax of fospropofol",10.2 min
same,bioavailability,"[2]; other: intraduodenal, 400 mg ID, read-out: absolute bioavailability of fospropofol",0.1%
same,half-life,"[2]; other: intraduodenal, 400 mg ID",16.8 min
same,half-life,[2]; 400 mg IV,16.8 min
same,Tmax,"[2]; 400 mg PO, read-out: Tmax of fospropofol",4.8 min
same,bioavailability,"[2]; 400 mg PO, read-out: absolute bioavailability of fospropofol",1%
same,half-life,[2]; 400 mg PO,19.2 min
"CC(C)c1cccc(C(C)C)c1O [propofol, 2,6-diisopropylphenol]",highest propofol level in plasma,"[1]; 50 mg fospropofol buccal, at 2 hours",about 500 nM
same,propofol in CSF,"[1]; 50 mg fospropofol buccal, limit of quantitation 10 nM",only 2 samples are above the limit of quantitation
same,bioavailability (F) of propofol based on AUC(0-∞),[2]; fospropofol 400 mg ID,37%
same,bioavailability (F) of propofol based on AUC(0-∞),[2]; fospropofol 400 mg oral,30%
same,Tmax,"[2]; other: intraduodenal, fospropofol 400 mg ID",10.2 min
same,bioavailability,"[2]; po, 400 mg, summary in discussion",≥ 30%
same,Tmax,[2]; fospropofol 400 mg PO,19.8 min
same,extraction by the liver,[3],80%
